Assay results published in patent US11197862B2, “Methods of preventing toxicity of platinum drugs” (XOMICS BIOPHARMA, INC., priority 2015, dated 2021).
Values joined by “and” are separate entries in the source; they are usually repeats but may differ in a detail not shown here. Equal values may be shown once. “Also recorded” adds a separate entry of the source. Read-outs that look alike come from different tables or passages of the source.

Tests used:
[1] = human, in vivo
OCT2 = biological target: T1, OCT2 (Homo sapiens, UniProt O15244); test: Inhibition of OCT2-mediated ASP+ uptake (Kido et al., Giacomini group); conditions: human, cell line expressing human OCT2 (cell line not given), probe ASP+ 5 μM
T1 sequence (O15244 1-555): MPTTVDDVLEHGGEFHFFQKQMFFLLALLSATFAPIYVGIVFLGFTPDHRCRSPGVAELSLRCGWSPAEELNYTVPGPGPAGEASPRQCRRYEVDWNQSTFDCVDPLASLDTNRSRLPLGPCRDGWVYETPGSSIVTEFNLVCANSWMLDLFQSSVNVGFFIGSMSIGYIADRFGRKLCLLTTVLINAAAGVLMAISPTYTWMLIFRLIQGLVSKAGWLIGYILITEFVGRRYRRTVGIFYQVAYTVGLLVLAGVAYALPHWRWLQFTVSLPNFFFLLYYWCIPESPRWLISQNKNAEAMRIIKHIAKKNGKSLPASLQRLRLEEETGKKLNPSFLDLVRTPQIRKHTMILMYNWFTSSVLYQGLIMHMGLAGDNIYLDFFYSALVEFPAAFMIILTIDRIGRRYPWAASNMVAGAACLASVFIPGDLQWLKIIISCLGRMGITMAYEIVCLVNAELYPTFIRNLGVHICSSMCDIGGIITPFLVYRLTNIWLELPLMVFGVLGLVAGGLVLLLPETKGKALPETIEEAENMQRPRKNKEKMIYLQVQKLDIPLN

MATE1 = biological target: T2, MATE1 (Homo sapiens, UniProt Q96FL8); test: Inhibition of MATE1-mediated oxaliplatin transport in human serum or 4% BSA HBSS
T2 sequence (Q96FL8 1-570): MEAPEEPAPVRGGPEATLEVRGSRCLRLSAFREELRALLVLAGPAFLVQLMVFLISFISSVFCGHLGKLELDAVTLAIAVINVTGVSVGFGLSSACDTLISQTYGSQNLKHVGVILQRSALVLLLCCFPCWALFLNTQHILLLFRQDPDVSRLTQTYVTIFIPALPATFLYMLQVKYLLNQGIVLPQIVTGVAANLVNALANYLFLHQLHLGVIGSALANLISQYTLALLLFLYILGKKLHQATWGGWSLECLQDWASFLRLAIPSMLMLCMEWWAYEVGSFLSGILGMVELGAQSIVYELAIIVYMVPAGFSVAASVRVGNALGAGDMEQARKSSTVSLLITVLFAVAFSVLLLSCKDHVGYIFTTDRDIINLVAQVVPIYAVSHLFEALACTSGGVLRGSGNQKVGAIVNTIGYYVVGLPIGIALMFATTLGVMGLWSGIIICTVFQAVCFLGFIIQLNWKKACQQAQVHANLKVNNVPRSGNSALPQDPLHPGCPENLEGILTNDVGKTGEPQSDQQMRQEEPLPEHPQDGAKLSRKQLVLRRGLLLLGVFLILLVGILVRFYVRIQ
Excerpt: (§1) Fully confluent MDCK cell monolayers were transfected with either cDNA plasmids encoding the human transporter to be tested or a GFP control. […] The cells were then washed with ice-cold PBS and lysed with 50:50 acetonitrile:H2O. Intracellular content of the substrate was quantified by LC/MS/MS or a MicroBeta radiometric plate reader.

MATE2K = MATE2K (Homo sapiens, UniProt Q86VL8); test: Inhibition of MATE2K-mediated oxaliplatin transport in human serum or 4% BSA HBSS
Chain of MATE2K (Q86VL8 1-566 isoform Q86VL8-3): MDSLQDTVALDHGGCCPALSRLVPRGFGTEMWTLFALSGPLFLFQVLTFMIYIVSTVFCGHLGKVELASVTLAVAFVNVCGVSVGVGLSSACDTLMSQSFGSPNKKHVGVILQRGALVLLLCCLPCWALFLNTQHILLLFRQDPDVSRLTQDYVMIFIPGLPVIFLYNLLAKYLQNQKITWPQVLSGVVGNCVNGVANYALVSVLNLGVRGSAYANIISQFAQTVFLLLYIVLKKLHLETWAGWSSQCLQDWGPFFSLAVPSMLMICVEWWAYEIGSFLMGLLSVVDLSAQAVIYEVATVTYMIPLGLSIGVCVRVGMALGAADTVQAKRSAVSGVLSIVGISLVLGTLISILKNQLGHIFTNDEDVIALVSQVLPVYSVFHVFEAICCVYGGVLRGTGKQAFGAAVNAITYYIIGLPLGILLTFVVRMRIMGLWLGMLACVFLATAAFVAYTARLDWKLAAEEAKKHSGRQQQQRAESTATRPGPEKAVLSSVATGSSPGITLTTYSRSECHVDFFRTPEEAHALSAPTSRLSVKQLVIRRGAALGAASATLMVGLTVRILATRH
Excerpt: as §1

[2] = biological target: T3, OCT2 over OCT3, MATE1 and MATE2K (Homo sapiens, UniProt O15244); test: Inhibition of OCT2-mediated oxaliplatin transport in 100% human serum or HBSS containing 4% BSA (IC50,app); conditions: human, MDCK-II cells transfected with human transporters, selectivity between OCT2 and OCT3, MATE1 and MATE2K, oxaliplatin transport
T3 sequence (O15244 1-555): T1 sequence (O15244 1-555)
Excerpt: as §1

OCT2 and MATE1 = test: Buflomedil inhibition of OCT2 and MATE1 with metformin as substrate (FIG. 15A); assay type: cell-based, human
[3] = test system: MDCK cells expressing OCT2, MATE1 and MATE2K; test: LDH cytotoxicity of cisplatin in MDCK-II triple-transporter model; assay type: cell-based, canine; conditions: 6 μM buflomedil; 1 mM cisplatin; FIG. 7
Procedure: A triple-transporter model for OCT2(SLC22A2), MATE1(SLC47A1), and MATE2-K(SLC47A2) was created by transfecting fully confluent MDCK-II cell monolayers with DNA mixture containing the plasmids encoding OCT2, MATE1, and MATE-2K at concentrations of 40, 15, and 5 ng/μl, respectively. […] This systems were cultured in complete medium consisting of Dulbecco's modified Eagle's medium without phenyl-red with 10% fetal bovine serum in an atmosphere of 5% CO2-95% air at 37° C. The apical medium was adjusted to pH 6.7 with 25 mM of 2-(N-morpholino) ethanesulfonic acid (MES).
Dolutegravir was tested at 10 μM. […] Cytotoxicity was tested using the same procedure described above.

[4] = test system: Balb/c mice exposed to chronic treatment with Oxaliplatin; test: Cold Plate Test in chronic oxaliplatin neuropathy model; assay type: in vivo, mouse; conditions: for Cold Plate Test pain signs after third injection / Cold Plate Test pain signs at the end of treatment (eight injections): OXA 3.5 mg/kg iv ± BFMD 30 mg/kg ip + 15 mg/kg iv; for Cold Plate Test pain signs after third injection: 3 cycles
Procedure: Cold Plate Test was used to determine the alterations in cold temperature related pain perception and their changes due to pharmacological treatment. Cold Plate Test was performed by using an apparatus (35100—Hot/Cold Plate. Ugo Basile instruments) composed by a Plexiglas cylinder and a thermostatic plate, able to reach variable temperatures. The mice were placed on the plate set at +4° C., free to move and walk. Two blinded experimenters simultaneously determine the number of pain signs (e.g. jumping, licking, etc.) in a trial of 5 minutes.

[5] = Mortality, clinical observations and body weight in the chronic model; assay type: in vivo, mouse; conditions: BFMD 30 mg/kg ip + 15 mg/kg iv ± OXA 3.5 mg/kg iv, twice a week for 4 weeks; n=12/group
[6] = cited from earlier work
[7] = Published clinical pharmacokinetic data; conditions: from published Cmax and protein binding
HT-29 cells = test: Anti-proliferation study (SRB assay) in HT-29 cells; conditions: for effect on anti-tumor potency of gemcitabine in HT-29: buflomedil 6 μM, FIG. 13; for effect on anti-tumor potency of 5-FU in HT-29: buflomedil 6 uM, dolutegravir 3, 6 and 9 μM, FIG. 12
Procedure: The potency was determined by the sulforhodamine B (SRB) assay in 96-well plates. […] Seeding density was 3000 cells/well for both cell lines.

[8] = test system: MDCK cells expressing OCT2, MATE1 and MATE2K; test: LDH cytotoxicity of oxaliplatin in MDCK-II triple-transporter model; conditions: for effect on oxaliplatin induced cytotoxicity in OCT2 expressing cells: buflomedil 3 and 6 μM, dolutegravir 10 μM, erlotinib 6 μM, cimetidine 6 μM, FIG. 6
Procedure: A triple-transporter model for OCT2(SLC22A2), MATE1(SLC47A1), and MATE2-K(SLC47A2) was created by transfecting fully confluent MDCK-II cell monolayers with DNA mixture containing the plasmids encoding OCT2, MATE1, and MATE-2K at concentrations of 40, 15, and 5 ng/μl, respectively. The OCT2 was expressed on the basolateral cell membrane, and MATE1 and MATE2-K were expressed on the apical side of the cells. […] The apical medium was adjusted to pH 6.7 with 25 mM of 2-(N-morpholino) ethanesulfonic acid (MES).
After removal of the media, a drug-free medium was added in both sides. After incubation 24 hours, the medium was collected, and the lactate dehydrogenase (LDH) activity in the medium was measured using an LDH cytotoxicity assay kit (G-Biosciences. St. Louis, Mo.; or Biochain, Newark, Calif.), according to the manufacturers' instructions. Cytotoxicity was evaluated by measuring the LDH activity in the medium.

Structure (SMILES) | potency estimated from few doses (OCT2) | IC50 (MATE1) | IC50 (MATE2K) | Plasma peak unbound concentration Cmax,u [7] | effect on anti-tumor potency of gemcitabine in HT-29 (HT-29 cells) | effect on anti-tumor potency of 5-FU in HT-29 (HT-29 cells) | effect on oxaliplatin induced cytotoxicity in OCT2 expressing cells [8] | other results
Clc1ccc(COC(Cn2ccnc2)c2ccc(Cl)cc2Cl)c(Cl)c1 (stereo not shown) [Miconazole] | 2 µM | > 100 µM | > 100 µM |  |  |  |  | Plasma peak unbound concentration Cmax,u [1]: 1190 nM; selectivity ratio [2]: > 10
COc1cc(OC)c(C(=O)CCCN2CCCC2)c(OC)c1 [Buflomedil, 4-pyrrolidin-1-yl-1-(2,4,6-trimethoxyphenyl)butan-1-one] | < 0.1 µM | 32.7 ± 5.4 µM | 84 ± 23.1 µM | 2040 nM | did not impact the anti-tumor effect of 5-FU and gemcitabine; also recorded: did not affect anti-tumor potency of gemcitabine | did not impact the anti-tumor effect of 5-FU and gemcitabine; also recorded: did not affect anti-tumor potency of 5-FU | significantly reduced oxaliplatin (OXA) induced cytotoxicity | inhibition selectivity between OCT2 and MATE1, metformin as substrate (OCT2 and MATE1): no inhibition selectivity between OCT2 and MATE1; effect on cisplatin cytotoxicity [3]: significantly reduced cytotoxicity from 1 mM of cisplatin; Cold Plate Test pain signs after third injection ([4]; listed as BFMD): only the group treated with OXA alone showed a significant increase in pain signs; Cold Plate Test pain signs after third injection ([4]; listed as buflomedil): effective on reducing cold allodynia; Cold Plate Test pain signs at the end of treatment (eight injections) ([4]; 8 cycles, listed as BFMD): significant decrease in pain signs versus OXA alone; Cold Plate Test pain signs at the end of treatment (eight injections) ([4]; 8 cycles, listed as buflomedil): effective on reducing cold allodynia; cold allodynia (cold plate test) ([4]; buflomedil 80 mg/kg po 2 hours before OXA, 8 cycles, n=3/group): effective on reducing mechanical (FIG. 30A) and cold (FIG. 30B) allodynia; also recorded: showed protective effects against OXAIPN; mortality [5]: Two animals (BFMD and OXA+BFMD groups) died after the first administration; also recorded: one animal (OXA+BFMD group) died after the last administration; plasma level associated with serious toxicities ([6]; European Medicines Agency 2012, Bourguignon 2012): above 10 mg/I and > 32.5 uM; MTC (maximum tolerable concentration) ([6]; plasma): 10 mg/I; IC50 ([8]; Canis lupus familiaris, MDCK, read-out: IC50 for reduction of oxaliplatin-induced cytotoxicity): 6 µM; reduction of cytotoxicity of 100 μM oxaliplatin ([8]; buflomedil 3-1000 μM, LDH release, FIG. 5): reduced cytotoxicity of 100 μM Oxaliplatin in OCT2-expressing cells in a dose-dependent fashion
C[C@@H]1CCO[C@H]2Cn3cc(C(=O)NCc4ccc(F)cc4F)c(=O)c(O)c3C(=O)N12 [Dolutegravir] |  |  |  | 50 nM | did not impact the anti-tumor effect of 5-FU and gemcitabine | did not impact the anti-tumor effect of 5-FU and gemcitabine; also recorded: did not affect anti-tumor potency of 5-FU | significantly reduced oxaliplatin (OXA) induced cytotoxicity | 
